Consider twelve compounds from PubChem BioAssay (NCI).

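Compound exposure: 48 hours, 5 concentrations, 96-well plates. Abbreviation: GI50, concentration required for 50% inhibition of growth. TGI: total growth inhibition.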

Some test systems named below: RXF 393 renal; SF-268 CNS; HCC-2998 colon; NCI-H23 lung; SF-295 CNS; COLO 205 colon; SK-OV-3 ovarian; NCI-H522 lung; CCRF-CEM leukemia; HCT-15 colon.
What all share (experiment): inhibition of tumour cell growth, NCI panel, 48 h

`Cn1c(N=[N+]=[N-])cc(=O)n(C)c1=O`: the TGI in the test on RXF 393 renal, in the test with SF-268 CNS, in the test with HCC-2998 colon, with NCI-H23 lung, with SF-295 CNS and with COLO 205 colon was over 100 µM throughout. Besides, the TGI in the test on SK-OV-3 ovarian, with NCI-H522 lung, in the test on CCRF-CEM leukemia and in the test on HCT-15 colon was over 100 µM in each case.

Consider `C/C(=N\NC(=O)c1cccnc1)c1cccc(/C(C)=N/NC(=O)c2cccnc2)n1.CC(=O)[O-].CC(=O)[O-].[Zn+2]`, for which the TGI is 36.8 µM in the test on RXF 393 renal; 84.4 µM with SF-268 CNS; over 100 µM in the test on HCC-2998 colon; over 67 µM in the test with NCI-H23 lung; over 30.2 µM in the test on SF-295 CNS; over 100 µM in the test with COLO 205 colon. Besides, the TGI with SK-OV-3 ovarian is over 100 µM; in the test on NCI-H522 lung, over 21.7 µM; in the test on CCRF-CEM leukemia, 65.6 µM; in the test on HCT-15 colon, over 100 µM. The GI50 in the test on HCC-2998 colon was 0.995 µM; in the test on COLO 205 colon it was 0.904 µM; in the test with NCI-H522 lung it was 0.134 µM; with CCRF-CEM leukemia, 0.783 µM.

As to `Clc1ccc2nc(CC3CCCC3)[nH]c2c1`, the TGI in the test with RXF 393 renal is 32.1 µM; in the test on SF-268 CNS, 40.2 µM; with HCC-2998 colon, 41.8 µM; in the test on NCI-H23 lung, 30.6 µM; in the test with SF-295 CNS, 34.7 µM; with COLO 205 colon, 27.9 µM. In addition, the TGI with SK-OV-3 ovarian was 49.1 µM; in the test with NCI-H522 lung, 21.2 µM; with CCRF-CEM leukemia it was over 100 µM; with HCT-15 colon, 22.9 µM.

In the case of `Cc1ccc(C(=O)C2=CN=C3C(=O)N(c4ccccc4)N(C)C3(C)C2=N)cc1` (stereo not drawn), the TGI in the test on RXF 393 renal, with HCC-2998 colon, in the test on NCI-H23 lung, in the test with SF-295 CNS, in the test with COLO 205 colon and in the test on SK-OV-3 ovarian was over 100 µM each time. Also, the TGI in the test on NCI-H522 lung, in the test with CCRF-CEM leukemia and with HCT-15 colon was over 100 µM throughout.

On to `COC12OC3CC4(C)C(=CC3OC(OC(C)C1O)C2O)CCC1C4CCC2(C)C(c3ccc(=O)oc3)CCC12O` (stereo not drawn), for which the TGI in the test with RXF 393 renal came to 0.0116 µM; in the test with SF-268 CNS, 0.00157 µM; in the test on HCC-2998 colon, 0.00945 µM; with NCI-H23 lung, 0.00177 µM; with SF-295 CNS, 0.447 µM; in the test on SK-OV-3 ovarian, 0.272 µM. Further, the TGI in the test with NCI-H522 lung was under 0.001 µM; in the test on CCRF-CEM leukemia, 0.00208 µM; with HCT-15 colon, 0.00553 µM.

Regarding `CCCC(=O)Nc1cc(/C=C/C(=O)N2CC(CCl)c3c2cc([N+](=O)[O-])c2ccccc32)n(C)c1` (stereo not drawn), the TGI with RXF 393 renal, in the test with SF-268 CNS, in the test on HCC-2998 colon, in the test on NCI-H23 lung, with SF-295 CNS and in the test with COLO 205 colon was over 100 µM in each case. The TGI in the test on SK-OV-3 ovarian, in the test on NCI-H522 lung, in the test on CCRF-CEM leukemia and in the test on HCT-15 colon was over 100 µM in each case.

For the compound `COc1ccc(NCc2cnc3nc(N)nc(N)c3c2C)cc1`, the TGI is over 100 µM in the test with RXF 393 renal; over 100 µM with SF-268 CNS; over 31.6 µM in the test on HCC-2998 colon; over 100 µM with NCI-H23 lung; over 100 µM in the test with COLO 205 colon; over 100 µM with SK-OV-3 ovarian. Further, the TGI in the test with NCI-H522 lung, in the test on CCRF-CEM leukemia and with HCT-15 colon was over 100 µM each time.

Turning to `COc1cc2c(cc1OC(=O)c1cc3ccccc3[nH]1)N=C[C@@H]1CCCN1C2=O`, the TGI in the test on RXF 393 renal is 0.36 µM; with SF-268 CNS, over 22.2 µM; in the test on HCC-2998 colon, 1.12 µM; with SF-295 CNS, 4.48 µM; in the test with COLO 205 colon, 0.405 µM; with SK-OV-3 ovarian it was 15.2 µM. Further, the results for the TGI in the test with NCI-H522 lung, in the test on CCRF-CEM leukemia and in the test with HCT-15 colon were 1.19 µM, 1.95 µM and over 34.2 µM, respectively.

Regarding `O=c1oc2c/c(=C\c3ccccc3)c(=O)c3cccc1c3-2`, the TGI in the test with RXF 393 renal is 72.6 µM; in the test on SF-268 CNS it was 58.7 µM; in the test on HCC-2998 colon it was over 100 µM; with NCI-H23 lung, over 100 µM; in the test with SF-295 CNS, over 100 µM; with COLO 205 colon, over 100 µM. Moreover, the TGI was over 100 µM in the test with SK-OV-3 ovarian, 45.1 µM in the test with NCI-H522 lung and over 100 µM in the test on HCT-15 colon.

Regarding `Cn1cc(-c2nc(-c3c[nH]c4ccncc34)cs2)c2cc(F)ccc21`, the GI50 in the test with RXF 393 renal is 1.57 µM; in the test on SF-268 CNS it was 1.74 µM; in the test on HCC-2998 colon, 1.64 µM; in the test with NCI-H23 lung, 1.72 µM; in the test with SF-295 CNS it was 1.64 µM; in the test with SK-OV-3 ovarian, 1.92 µM. The GI50 in the test with NCI-H522 lung is 1.67 µM; in the test on HCT-15 colon, 1.33 µM. Also, the TGI is 3.04 µM in the test with RXF 393 renal; 3.44 µM with SF-268 CNS; 3.08 µM with HCC-2998 colon; 3.25 µM with NCI-H23 lung; 3.02 µM in the test with SF-295 CNS; 3.37 µM in the test with SK-OV-3 ovarian. Further, the TGI in the test on NCI-H522 lung is 3.23 µM; with HCT-15 colon, 2.71 µM.

In the case of `O=C(O)CN(CC(=O)O)Cc1ccn(-c2cccc(-n3ccc(CN(CC(=O)O)CC(=O)O)n3)n2)n1`, the TGI in the test with RXF 393 renal, in the test on SF-268 CNS, in the test on HCC-2998 colon, with NCI-H23 lung, in the test on SF-295 CNS and in the test with COLO 205 colon was over 100 µM in each case. The TGI in the test with SK-OV-3 ovarian, in the test with NCI-H522 lung and in the test on HCT-15 colon was over 100 µM each time.

With `CNc1ncnc2c1nnn2C`, the TGI in the test with RXF 393 renal, with HCC-2998 colon, with NCI-H23 lung, in the test with SF-295 CNS, with COLO 205 colon and in the test with SK-OV-3 ovarian was over 100 µM throughout. For the same compound, the TGI in the test on NCI-H522 lung, in the test on CCRF-CEM leukemia and in the test with HCT-15 colon was over 100 µM in each case.
